The source of these data is patent publication US12358999B2, “Protein recognizing drug moiety of antibody-drug conjugate” (DAIICHI SANKYO COMPANY, LIMITED, priority 2018, dated 2025).

Assay [1] has as its system mouse antibody 1A3. Nature of the assay: Specificity of mouse antibody 1A3: immunostaining after mixing with compound (Example 5 ii). It counts as binding. The conditions noted are these: Example 5, written in present tense; blending ratio 0.1:0.04:0.03. As to the method:
To a highly immunodeficient mouse (NOG mouse), a human-derived tumor is subcutaneously transplanted. After the antibody-drug conjugate according to the present invention is administered, the tumor tissue is taken to prepare paraffin-embedded specimens. Then, stainability of a mouse antibody 1A3 is examined. The tumor tissue is taken from a NOG mouse to which the antibody-drug conjugate according to the present invention is not administered and used as a negative control. Deparaffinization and antigen activation are carried out using Autostainer Link pretreatment system (PT Link, manufactured by DAKO) and an antigen retrieval solution (Target Retrieval Solution Low pH, manufactured by DAKO). The following staining operation is carried out using an automatic staining device (Dako Autostainer Link 48: Manufactured by DAKO). After washing with EnVision FLEX WASH BUFFER (manufactured by DAKO), Peroxidase Block 3% H2O2 (manufactured by DAKO) is add; incubation is carried out; and washing is carried out with EnVision FLEX WASH BUFFER. Protein Block serum free (manufactured by DAKO) is added; incubation s carried out; and liquid is removed by air blow. Mouse antibody 1A3 is diluted with REAL Antibody Diluent (manufactured by DAKO) and reacted. […]

Assay [2] deals with mouse antibody 1A3. Description: Specificity of mouse antibody 1A3: immunostaining after mixing with compound (Example 9 ii). It counts as binding. The conditions noted are these: CDH6-ADC (I) treated NOG mouse tumor; blending ratio 1A3: compound (2): SN-38 0.1:0.04:0.03. As to the method:
To a highly immunodeficient mouse (NOG mouse), a human tumor taken from a patient with clear cell renal cell carcinoma was subcutaneously transplanted. After CDH6-ADC (I) was administered, the tumor tissue was taken to prepare paraffin-embedded specimens. Then, stainability of mouse antibody 1A3 was examined. The tumor tissue was taken from an NOG mouse to which CDH6-ADC (I) was not administered and used as a negative control. Deparaffinization and antigen activation were carried out using Autostainer Link pretreatment system (PT Link, manufactured by DAKO) and an antigen retrieval solution (Target Retrieval Solution Low pH, manufactured by DAKO) at 97° C. for 40 minutes. The following staining operation was carried out using an automatic staining device (Dako Autostainer Link 48: manufactured by DAKO) at room temperature. After washing once with EnVision FLEX WASH BUFFER (manufactured by DAKO), Peroxidase Block 3% H2O2 (manufactured by DAKO) was added; incubation was carried out for 5 minutes; and washing was carried out once with EnVision FLEX WASH BUFFER. Protein Block serum free (manufactured by DAKO) was added; incubation was carried out for 30 minutes; and liquid was removed by air blow. Mouse antibody 1A3 was diluted with REAL Antibody Diluent (manufactured by DAKO) to fall in the range of 0.03 μg/mL to 0.3 μg/mL and reaction was made for 60 minutes. […]

Assay [3] concerns mouse antibody 1A3. Description: Competitive inhibition with HER2-ADC (I), chemical structure recognized by mouse antibody 1A3 (Gyrolab). It counts as binding. The conditions noted are these: compound 1 and 100 μg/mL dilution solutions; response at HER2-ADC (I) 250 ng/mL. The source says: The chemical structure to be recognized by mouse antibody 1A3 was checked by competitive inhibition with HER2-ADC (I) using Gyrolab xP workstation (GYROS PROTEIN Technologies). As the compound for use in competitive inhibition, compound (1), compound (2), compound (7), compound (8), compound (9), compound (10), compound (11), Topotecan and Rubitecan were selected.
As the capture reagent, mouse antibody 1A3 labeled with biotin by a labeling kit (ChromaLink Biotin Protein LABELING Kit, Solulink) was used. The concentration thereof was controlled to be 700 nM with 0.1% PS20-containing PBS. The compounds for use in competitive inhibition, compound (1), compound (2), compound (7), compound (8), compound (9), compound (10), compound (11), Topotecan and Rubitecan were separately dissolved in DMSO. The solutions each was diluted with 10% or 20% DMSO in Rexxip HN (GYROS PROTEIN Technologies) to prepare 0, 1 and 100 μg/mL dilution solutions. To each of them, the 700 nM mouse antibody 1A3 solution was added in an equal amount. The mixture was stirred and allowed to react at room temperature in a dark place for one hour or more. The concentration of HER2-ADC (I) was controlled with Rexxip HN to be 0, 0.244, 0.977, 3.91, 15.6, 62.5, 250 and 1000 ng/mL. As the detection reagent, Mouse Anti-(Anti-HER2 Ab) idiotype Ab (13C1) (IBL) was labeled by DyLight650 (registered trademark) labeling kit and put in use. The concentration thereof was controlled with Rexxip F (GYROS PROTEIN Technologies) to be 10 nM. The above solution was set at Gyrolab xP workstation and measurement was carried out by use of Gyrolab Bioaffy 200 at 200-3W-002-A (PMT5). The regression analysis was carried out by use of Gyrolab Evaluator 3.4.0.24 in 4-parametric logistic model (weight: Response). The calibration curve of HER2-ADC (I) was prepared per concentration of the competitive inhibition compound. The inhibition rate (%) was calculated by comparing the response at an HER2-ADC (I) concentration of 250 ng/mL to that of the case where no compound was added (concentration 0 ng/mL).

The next assay addresses T1, topoisomerase I (Homo sapiens, UniProt P11387).
T1 sequence (P11387 1-765): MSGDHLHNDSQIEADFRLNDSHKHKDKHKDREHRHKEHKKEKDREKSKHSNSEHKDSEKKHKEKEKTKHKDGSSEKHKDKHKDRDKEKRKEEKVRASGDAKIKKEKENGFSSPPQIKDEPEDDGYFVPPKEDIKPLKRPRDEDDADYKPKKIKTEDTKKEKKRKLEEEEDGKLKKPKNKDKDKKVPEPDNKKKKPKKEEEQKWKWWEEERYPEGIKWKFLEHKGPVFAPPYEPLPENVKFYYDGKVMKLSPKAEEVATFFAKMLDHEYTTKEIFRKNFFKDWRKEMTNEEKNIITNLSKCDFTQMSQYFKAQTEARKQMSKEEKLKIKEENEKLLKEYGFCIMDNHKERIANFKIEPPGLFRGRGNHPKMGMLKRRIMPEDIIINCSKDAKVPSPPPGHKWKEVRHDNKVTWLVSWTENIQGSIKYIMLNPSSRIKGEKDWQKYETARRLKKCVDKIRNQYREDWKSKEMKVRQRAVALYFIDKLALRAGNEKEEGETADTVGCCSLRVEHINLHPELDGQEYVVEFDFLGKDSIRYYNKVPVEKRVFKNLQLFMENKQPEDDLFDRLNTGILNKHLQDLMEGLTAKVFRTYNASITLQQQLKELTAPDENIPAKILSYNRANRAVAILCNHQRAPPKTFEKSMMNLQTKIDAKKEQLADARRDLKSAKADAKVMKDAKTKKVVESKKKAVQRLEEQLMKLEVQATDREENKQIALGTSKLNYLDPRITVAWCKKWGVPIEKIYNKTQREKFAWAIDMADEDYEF
The conditions noted are these: cited from earlier work.

For a further assay, the system named is TROP2-ADC (I). Nature of the assay: Immunostaining with rabbit chimeric antibody 1A3, FaDu subcutaneous tumor after TROP2-ADC (I). It counts as binding, nude mouse. As to the method:
To an immunodeficient mouse (nude mouse), human head and neck cancer cell line FaDu was subcutaneously transplanted. After TROP2-ADC (I) was administered, the tumor tissue was taken to prepare paraffin-embedded specimens. Then, stainability of rabbit chimeric antibody 1A3 was examined. The tumor tissue was taken from a nude mouse to which an anti-TROP2 antibody (an antibody comprising a heavy chain consisting of amino acid sequence of amino acid residues 20 to 470 of SEQ ID NO: 25 and a light chain consisting of amino acid sequence of amino acid residues 21 to 234 of SEQ ID NO: 26, hereinafter referred to as “Anti-TROP2 Ab”) and used as a negative control. Deparaffinization and antigen activation were carried out using Autostainer Link pretreatment system (PT Link, manufactured by DAKO) and an antigen retrieval solution (Target Retrieval Solution Low pH, manufactured by DAKO) at 97° C. for 40 minutes. The following staining operation was carried out using an automatic staining device (Dako Autostainer Link 48: manufactured by DAKO) at room temperature. After washing once with EnVision FLEX WASH BUFFER (manufactured by DAKO), REAL Peroxidase-Blocking Solution (manufactured by DAKO) was added; incubation was carried out for 5 minutes; and washing was carried out once with EnVision FLEX WASH BUFFER. […]

The next assay deals with GPR20-ADC (I). Description: Immunostaining with rabbit chimeric antibody 1A3, GIST-T1/GPR20 subcutaneous tumor after GPR20-ADC (I). It counts as binding, nude mouse.

With `CCc1c2c(nc3ccc(O)cc13)-c1cc3c(c(=O)n1C2)COC(=O)[C@]3(O)CC` [SN-38, reference compound], the “stainability of mouse antibody 1A3 after mixing with the compound” value in the assay on mouse antibody 1A3 [1] is given as “does not disappear”. For the same molecule, in the assay on mouse antibody 1A3 [2], the “staining ability of mouse antibody 1A3 after mixing with the compound” value is “did not disappear”.

Regarding `CC[C@@]1(O)C(=O)OCc2c1cc1n(c2=O)Cc2c-1nc1cc(F)c(C)c3c1c2[C@@H](NC(=O)CO)CC3` [compound (2)], the “stainability of mouse antibody 1A3 after mixing with the compound” value in the assay on mouse antibody 1A3 [1] is “disappears”. For the same molecule, the “competitive inhibition of recognition of mouse antibody 1A3 to HER2-ADC (I) (inhibition rate, FIG. 41)” value in the assay on mouse antibody 1A3 [3] is “strong competitive inhibition”. Besides, in the assay with mouse antibody 1A3 [2], the “staining ability of mouse antibody 1A3 after mixing with the compound” value is “disappeared”. Further, on topoisomerase I, the “topoisomerase I inhibitory activity” value is “topoisomerase I inhibitory effect”.

B1: rabbit chimeric antibody 1A3: rabbit chimeric antibody derived from mouse antibody 1A3; heavy chain SEQ ID NO: 19, light chain SEQ ID NO: 20 (antibody)
heavy: MKHLWFFLLLVAAPRWVLSEVKLVESGGGLVQPGGSRKLSCAASGFTFSDYGMVWIRQAPGRGLEWVAYISSGSSAIYYADTVKGRFTISRDNPKNTLFLQMNSLRSEDSAMYFCARPPRYDVYSAWFAYWGQGTLVTVSAGQPKAPSVFPLAPCCGDTPSSTVTLGCLVKGYLPEPVTVTWNSGTLTNGVRTFPSVRQSSGLYSLSSVVSVTSSSQPVTCNVAHPATNTKVDKTVAPSTCSKPTCPPPELLGGPSVFIFPPKPKDTLMISRTPEVTCVVVDVSQDDPEVQFTWYINNEQVRTARPPLREQQFNSTIRVVSTLPITHQDWLRGKEFKCKVHNKALPAPIEKTISKARGQPLEPKVYTMGPPREELSSRSVSLTCMINGFYPSDISVEWEKNGKAEDNYKTTPAVLDSDGSYFLYNKLSVPTSEWQRGDVFTCSVMHEALHNHYTQKSISRSPGK
light: MVLQTQVFISLLLWISGAYGDIVMTQSHKFMSTSVGDRVSITCKASQDVGSAVVWYQQKPGHSPDLLIYWASTRHTGVPDRFTGSGSGTDFTLTIGNVQSEDLADYFCQQYSSYPVTFGGGTKLEIKRDPVAPSVLLFPPSKEELTTGTATIVCVANKFYPSDITVTWKVDGTTQQSGIENSKTPQSPEDNTYSLSSTLSLTSAQYNSHSVYTCEVVQGSASPIVQSFNRGDC
With B1, the “stainability to subcutaneous tumor tissue” value is “satisfactory stainability” in the assay on TROP2-ADC (I) (animal administered with TROP2-ADC (I), antibody 0.1 μg/mL); “did not show stainability” with TROP2-ADC (I) (animal administered with anti-TROP2 Ab (negative control tissue)); “satisfactory stainability” in the assay with GPR20-ADC (I) (animal administered with GPR20-ADC (I)); “did not show stainability” in the assay with GPR20-ADC (I) (animal not administered with GPR20-ADC (I)).
